Source: patent US20230014447A1 (priority 2019, published 2023)
Converted amounts (≈) assume the structure as drawn. Like-named read-outs stand apart in the source and are kept apart here. Marks after values point to notes of the source that are not given here.

Tested on: Legionella pneumophila MMX 7515
Assay: microbe, parasite or virus in culture
Assay type: cell-based
Conditions: for MIC: Legionella pneumophila
[1] = MMX7515, 24 h, read-out: MIC (in vitro activity)
[2] = MMX7515, 48 h, read-out: MIC (in vitro activity)

Compound	MIC [1]	MIC [2]	MIC (MMX7515, read-out: MIC values)	MIC (in vitro activity) (L. pneumophila MMX 7515, plate read at 48 hr)	MIC (in vitro activity) (Legionella pneumophila MMX 7515, plate read at 24 hr)
C=C(C)C1CCC(C)=CC1c1c(O)cc(CCCCC)cc1O (centres unmarked) [CBD, 2-[3-methyl-6-(1-methylethenyl)-2-cyclohexen-1-yl]-5-pentyl-1,3-benzenediol]	1 µg/mL (≈ 3.18 µM)	1 µg/mL (≈ 3.18 µM)	1 µg/mL (≈ 3.18 µM)	–	–
C[C@H]1COc2c(N3CCN(C)CC3)c(F)cc3c(=O)c(C(=O)O)cn1c23 [LVX, levofloxacin]	0.5 µg/mL (≈ 1.38 µM)	0.5 µg/mL (≈ 1.38 µM)	–	–	–
C[C@@H](O)[C@H]1C(=O)N2C(C(=O)O)=C(S[C@@H]3CN[C@H](C(=O)N(C)C)C3)[C@H](C)[C@H]12 [MEM, meropenem]	0.25 µg/mL (≈ 0.652 µM)	0.5 µg/mL (≈ 1.3 µM)	–	–	–
CN[C@H](CC(C)C)C(=O)N[C@H]1C(=O)N[C@@H](CC(N)=O)C(=O)N[C@H]2C(=O)N[C@H]3C(=O)N[C@H](C(=O)N[C@H](C(=O)O)c4cc(O)cc(O)c4-c4cc3ccc4O)[C@H](O)c3ccc(c(Cl)c3)Oc3cc2cc(c3O[C@@H]2O[C@H](CO)[C@@H](O)[C@H](O)[C@H]2O[C@H]2C[C@](C)(N)[C@H](O)[C@H](C)O2)Oc2ccc(cc2Cl)[C@H]1O [VAN, vancomycin]	0.12 µg/mL (≈ 0.0828 µM)	0.25 µg/mL (≈ 0.173 µM)	–	–	–
gentamicin	–	–	–	2** μg/mL	1* μg/mL
